Series [1] in a line: Pharmacokinetic study in female CD1 mice, single oral dose. The settings on record: CD1, mouse, in vivo, 200 mg/kg.
Series [2] is described as follows: In vitro liver microsome assay, mouse. The format is in vitro ADME. The settings on record: predicted from mouse liver microsome stability.

SMILES strings stand for the structures. Where only a bound is given, the exact number is not on record here.

`CCOC(=O)c1c(-c2cccc(Br)c2)[nH]c2cc(OC)c(F)cc2c1=O` [20h] showed an AUC in series [1] of over 70 µM·h.

As to `CCOC(=O)c1c(-c2cccc(Cl)c2)[nH]c2cc(OC)c(F)cc2c1=O` [20g, Ethyl 2-(3-chlorophenyl)-6-fluoro-7-methoxy-4-oxo-1,4-dihydroquinoline-3-carboxylate], in series [2], the “predicted in vivo mouse CL′inf” value is listed as 9.4 mL/min/kg. In series [1], this compound had an area under the curve (AUC) of over 125 µM·h.

These data come from publication PMC3349818 (Journal of Medicinal Chemistry, 2012).
